Values quoted from earlier work, collected in patent US20230120480A1, “METHODS FOR REMOVING CONTAMINANTS FROM PLANT-DERIVED PHARMACEUTICALS” (priority 2021, published 2023).

Conditions: permissible limit of the pesticide in Cannabis, State of Oregon

Compound	Action Level (ppm)
COc1ccc(-c2ccccc2)cc1NNC(=O)OC(C)C [Bifenazate]	0.2
CC(C)(C)c1ccc(CSc2cnn(C(C)(C)C)c(=O)c2Cl)cc1 [Pyridaben]	0.2
CCCN(CC)CC1COC2(CCC(C(C)(C)C)CC2)O1 (centres unmarked) [Spiroxamine]	0.4
CC(C)(C)C(O)C(Cc1ccc(Cl)cc1)n1cncn1 (centres unmarked) [Paclobutrazol]	0.4
CCOc1cc(C(C)(C)C)ccc1C1COC(c2c(F)cccc2F)=N1 (centres unmarked) [Etoxazole]	0.2
CC1(C)C(C=C(Cl)Cl)C1C(=O)OC(C#N)c1ccc(F)c(Oc2ccccc2)c1 (centres unmarked) [Cyfluthrin]	1
COP(=O)(NC(C)=O)SC (centres unmarked) [Acephate]	0.4
CNC(=O)CSP(=S)(OC)OC [Dimethoate]	0.2
CNC(=O)Oc1cc(C)c(SC)c(C)c1 [Methiocarb]	0.2
CNC(=O)c1cc(Cl)cc(C)c1NC(=O)c1cc(Br)nn1-c1ncccc1Cl [Chlorantranili- prole]	0.2
CO/N=C(/C(=O)OC)c1ccccc1COc1ccccc1C [Kresoxim- methyl]	0.4
Pyrethrins	1
CNC(=O)Oc1cccc2c1OC(C)(C)C2 [Carbofuran]	0.2
CNC(=O)O/N=C(\SC)C(=O)N(C)C [Oxamyl]	1
O=C(Nc1ccccc1-c1ccc(Cl)cc1)c1cccnc1Cl [Boscalid]	0.4
CCCCC(C#N)(Cn1cncn1)c1ccc(Cl)cc1 (centres unmarked) [Myclobutanil]	0.2
CCOC(=O)NCCOc1ccc(Oc2ccccc2)cc1 [Fenoxycarb]	0.2
C=CCOC(Cn1ccnc1)c1ccc(Cl)cc1Cl (centres unmarked) [Imazalil]	0.2
CCOC(=O)CC(SP(=S)(OC)OC)C(=O)OCC (centres unmarked) [Malathion]	0.2
COP(=O)(OC)OC(Br)C(Cl)(Cl)Br (centres unmarked) [Naled]	0.5
N#CCNC(=O)c1cnccc1C(F)(F)F [Flonicamid]	1
CNC(=O)Oc1ccccc1OC(C)C [Propoxur]	0.2
N#Cc1nn(-c2c(Cl)cc(C(F)(F)F)cc2Cl)c(N)c1[S+]([O-])C(F)(F)F (centres unmarked) [Fipronil]	0.4
Cc1nn(C)c(Oc2ccccc2)c1/C=N/OCc1ccc(C(=O)OC(C)(C)C)cc1 [Fenpyroximate]	0.4
CCOc1ccc(C(C)(C)COCc2cccc(Oc3ccccc3)c2)cc1 [Etofenprox]	0.4
N#Cc1c[nH]cc1-c1cccc2c1OC(F)(F)O2 [Fludioxonil]	0.4

Compound	Action Level (ppm)
CNC(=O)ON=C(C)SC [Methomyl]	0.4
C/C(=N\C#N)N(C)Cc1ccc(Cl)nc1 [Acetamiprid]	0.2
CC1(C)C(C=C(Cl)Cl)C1C(=O)OCc1cccc(Oc2ccccc2)c1 (centres unmarked) [Permethrins]	0.2
C#CCC1=C(C)C(OC(=O)[C@@H]2[C@@H](C=C(C)C)C2(C)C)CC1=O (some centres unmarked) [Prallethrin]	0.2
Cc1c(COC(=O)[C@@H]2[C@H](/C=C(\Cl)C(F)(F)F)C2(C)C)cccc1-c1ccccc1 (racemic) [Bifenthrin]	0.2
CCOC(=O)OC1=C(c2cc(C)ccc2C)C(=O)N[C@]12CC[C@@H](OC)CC2 [Spirotetramat]	0.2
CCOP(=S)(OCC)Oc1cc(C)nc(C(C)C)n1 [Diazinon]	0.2
CC(C)(C)C(O)(CCc1ccc(Cl)cc1)Cn1cncn1 (centres unmarked) [Tebuconazole]	0.4
CNC(=O)Oc1cccc2ccccc12 [Carbaryl]	0.2
COP(=O)(OC)OC=C(Cl)Cl [DDVP (Dichlorvos)]	0.1
CO/N=C(/C(=O)OC)c1ccccc1CO/N=C(\C)c1cccc(C(F)(F)F)c1 [Trifloxystrobin]	0.2
Cc1cc(C)c(C2=C(OC(=O)CC(C)(C)C)C3(CCCC3)OC2=O)c(C)c1 [Spiromesifen]	0.2
N#C/N=C1\SCCN1Cc1ccc(Cl)nc1 [Thiacloprid]	0.2
Abamectin	0.5
COCC(=O)N(c1c(C)cccc1C)C(C)C(=O)OC (centres unmarked) [Metalaxyl]	0.2
CCCCC(CC)CN1C(=O)C2C3C=CC(C3)C2C1=O (centres unmarked) [MGK-264]	0.2
CO/C=C(/C(=O)OC)c1ccccc1Oc1cc(Oc2ccccc2C#N)ncn1 [Azoxystrobin]	0.2
CC1C(c2ccc(Cl)cc2)SC(=O)N1C(=O)NC1CCCCC1 (centres unmarked) [Hexythiazox]	1
O=[N+]([O-])NC1=NCCN1Cc1ccc(Cl)nc1 [Imidacloprid]	0.4
COP(=S)(OC)SCN1C(=O)c2ccccc2C1=O [Phosmet]	0.2
CCCCCCCCCCCCC1=C(OC(C)=O)C(=O)c2ccccc2C1=O [Acequinocyl]	2
CN1COCN(Cc2cnc(Cl)s2)/C1=N\[N+](=O)[O-] [Thiamethoxam]	0.2
CCCC1COC(Cn2cncn2)(c2ccc(Cl)cc2Cl)O1 (centres unmarked) [Propiconazole]	0.4
Spinosad	0.2
CNC(=O)O/N=C/C(C)(C)SC [Aldicarb]	0.4
CCOCn1c(-c2ccc(Cl)cc2)c(C#N)c(Br)c1C(F)(F)F [Chlorfenapyr]	1

Conditions: not given

Compound	Water Soluble?
CCCCCc1cc2c(c(O)c1C(=O)O)-c1cc(C)ccc1C(C)(C)O2 [Cannabinolic acid]	Yes
CCCc1cc(O)c2c(c1)OC1(C)CCC3C1C2C3(C)C (centres unmarked) [Cannabicyclovarin]	No
Dehydrocannabifuran	No
C=C(C)c1ccc(C)cc1-c1c(O)cc(CCC)cc1O [Cannabinodivarin]	No
CCCCCc1cc2c(c(O)c1C(=O)O)[C@@H]1C=C(C)CC[C@H]1C(C)(C)O2 [Delta-9-tetrahydrocannabinolic acid A]	Yes
C=C(C)[C@@H]1CC[C@](C)(O)[C@H]2Oc3cc(CCCCC)c(C(=O)O)c(O)c3[C@@H]12 [Cannabielsoin acid A]	No
CCCCCc1cc(O)c2c(c1)OC(C)(C)C1=C2C(O)C(C)(O)CC1 (centres unmarked) [Cannabitriol]	No
CCCCCc1cc(O)c2c(c1)OC(C)(C)C1=C2C(=O)C(C)CC1 (centres unmarked) [10-Oxo-delta-6a-tetrahydrocannabinol]	No
CCCc1cc2c(c(O)c1C(=O)O)[C@@H]1C=C(C)CC[C@H]1C(C)(C)O2 [Delta-9-tetrahydrocannabivarinic acid]	Yes
CCCc1cc(O)c2c(c1)OC(C)(C)C1=C2C(O)C(C)(O)CC1 (centres unmarked) [Cannabitriolvarin]	No
Cannbicitran	No
C=C(C)[C@@H]1CCC(C)=C[C@H]1c1c(O)cc(CCC)c(C(=O)O)c1O [Cannabidivarinic acid]	Yes
C=C(C)[C@@H]1CC[C@](C)(O)[C@H]2Oc3c(C(=O)O)c(CCCCC)cc(O)c3[C@@H]12 [Cannabielsoic acid B]	No
C=C(C)[C@@H]1CC[C@](C)(O)[C@H]2Oc3cc(CCCCC)cc(O)c3[C@@H]12 [Cannabielsoin]	No
CCCCCc1cc(OC)c(C/C=C(\C)CCC=C(C)C)c(O)c1C(=O)O [Cannabigerolic acid monomethylether]	Yes
CCCCc1cc(O)c2c(c1)OC(C)(C)c1ccc(C)cc1-2 [Cannabinol-C4]	No
CCCCCc1cc(O)c(C/C=C(\C)CCC=C(C)C)c(O)c1 [Cannabigerol]	No

Compound	Water Soluble?
CCCCCc1cc(O)c2c(c1)OC(C)(C)[C@H](CCC(C)=O)C2=O [Cannabichromanon]	No
CC1=CC2c3c(cc(C)c(C(=O)O)c3O)OC(C)(C)C2CC1 (centres unmarked) [Delta-9-tetrahydrocannabiorcolic acid]	Yes
CCCc1cc(O)c2c(c1)OC(C)(C)c1ccc(C)cc1-2 [Cannabivarin]	No
CCCCCc1cc(O)c2c(c1)OC(C)(C)[C@H]1CCC(C)=C[C@@H]21 (relative stereo) [Delta-9-cis-tetrahydrocannabinol]	No
Cc1cc(O)c2c(c1)OC(C)(C)c1ccc(C)cc1-2 [Cannabiorcool]	No
CCCc1cc(O)c2c(c1)OC(C)(CCC=C(C)C)C=C2 (centres unmarked) [Cannabichromevarin]	No
CCCCCc1cc2c(c(O)c1C(=O)O)[C@@H]1CC(C)=CC[C@H]1C(C)(C)O2 [Delta-8-tetrahydrocannabinolic acid]	Yes
CCCCc1cc2c(c(O)c1C(=O)O)[C@@H]1C=C(C)CC[C@H]1C(C)(C)O2 [Delta-9-tetrahydrocannabinolic acid-C4]	Yes
C=C(C)[C@@H]1CCC(C)=C[C@H]1c1c(O)cc(C)cc1O [Cannabidiorcol]	No
CCCc1cc(O)c2c(c1)OC1(C)CCC(C(C)(C)O)C2C1 (centres unmarked) [Cannabiglendol]	No
CCCCCc1cc2c(c(O)c1C(=O)O)C1C3C(CCC3(C)O2)C1(C)C (centres unmarked) [Cannabicyclolic acid]	Yes
CCCCCc1cc(O)c2c(c1)OC(C)(C)C1=C2C(OCC)C(C)(O)CC1 (centres unmarked) [10-Ethoxy-9-hydroxy-delta-6a-tetrahydrocannabinol]	No
C=C(C)[C@@H]1CCC(C)=C[C@H]1c1c(O)cc(CCCCC)cc1O [Cannabidiol, reference compound]	No
CC1=CC2c3c(O)cc(C)cc3OC(C)(C)C2CC1 (centres unmarked) [Delta-9-tetrahydrocannabiorcol]	No
C=C(C)[C@@H]1CCC(C)=C[C@H]1c1c(O)cc(CCC)cc1O [Cannabidivarin]	No
C=C(C)c1ccc(C)cc1-c1c(O)cc(CCCCC)cc1O [Cannabinodiol]	No
CCCc1cc(O)c(C/C=C(\C)CCC=C(C)C)c(O)c1 [Cannabigerovarin]	No
